Data published in patent US20090118331A1, “Use of Lobeline Epimers in the Treatment of Central Nervous System Diseases, Pathologies, and Drug Abuse” (priority 2007, published 2009).

How the values were obtained:
[1] = Lobeline conversion to epimer in the HEPES buffer system used at 25° C. in the [^3H]DTBZ binding study (HPLC); assay type: physicochemical; settings: for Epimer %: [^3H]DTBZ binding buffer, 25° C.
Method: The initial dissolution of lobeline in water was followed by a 1:1 dilution of this stock solution in the appropriate HEPES buffer system, incubation at the prescribed temperature, and HPLC assay of each epimer and potential degradants over 2 hour incubation.
After 2 hours, the 25° C.

[2] = Lobeline epimerization in pH 7.4 phosphate buffer control; settings: after 2 hours, with impurity
Method: In order to determine the tendency of lobeline to undergo epimerization in the HEPES buffer employed in the 25° C. [^3H]DTBZ binding study and the 37° C. VMAT2 uptake studies previously described, analogous solution epimerization experiments were conducted using the corresponding conditions for each individual assay. […] As this dynamic phenomenon occurs, the ratio of lobeline to lobeline epimer in solution naturally changes over time. Further, depending upon the solution conditions, the rate and extent of epimerization may vary; thus, a ratio of lobeline to epimer, if achieved, may occur at various time points. After 2 hours, the 25° C. […] The epimerization of lobeline in the 37° C.

[3] = clinical; settings: human, in vivo
Method: Three consecutive doses of lobeline (either 30, 45 and 45 mg in the first study group, or 60, 60 and 60 mg in the second group) were administered to human volunteers at 0800, 1200 and 1600 over two full inpatient days. The pharmacokinetics of lobeline and epimer were then assessed in each subject. […] A crude index of accumulation (non-steady state) was obtained by dividing the sixth dose trough concentration by that observed for the fifth dose.

[4] = in vivo; settings: for AUC(0-inf) / AUC(0-t) / Cmax / MRT last / Tmax / Vd / clearance / half-life: rat, in vivo
Method: Here, serial doses of lobeline were administered to male and female rats intravenously, subcutaneously or orally, and the pharmacokinetic profiles of the parent lobeline and its epimer were monitored in plasma.

[5] = Lobeline conversion to epimer in the buffer system used at 37° C. in the VMAT2 uptake study (HPLC); assay type: physicochemical; settings: 37° C. uptake buffer with ATP-Mg2+ cofactor reduced from 2 mM to 0.4 mM, after 2 hours, with impurity

Compound: CN1[C@H](CC(=O)c2ccccc2)CCC[C@H]1C[C@H](O)c1ccccc1 (single isomer, unassigned; epimer 2) [Epimer, 2-[6S-(2S-hydroxy-2-phenyl-ethyl)-1-methyl-piperidin-2S-yl]-1-phenyl-ethanone]
- final component concentration (as a function of the area under the curve) ([1]; HEPES [^3H]DTBZ binding buffer, after 2 hours at 25° C.): 17%
- Epimer % ([1]; T0, sample age 0:01): 1.54%
- Epimer % ([1]; T5, sample age 0:06): 2.16%
- Epimer % ([1]; T10, sample age 0:10): 3.34%
- Epimer % ([1]; T15, sample age 0:15): 4.55%
- Epimer % ([1]; T20, sample age 0:20): 5.27%
- Epimer % ([1]; T25, sample age 0:25): 5.91%
- Epimer % ([1]; T30, sample age 0:31): 7.18%
- Epimer % ([1]; T35, sample age 0:35): 7.30%
- Epimer % ([1]; T40, sample age 0:40): 8.66%
- Epimer % ([1]; T45, sample age 0:45): 9.31%
- Epimer % ([1]; T50, sample age 0:50): 9.94%
- Epimer % ([1]; T55, sample age 0:55): 10.2%
- Epimer % ([1]; T60, sample age 1:00): 10.9%
- Epimer % ([1]; T70, sample age 1:10): 11.9%
- Epimer % ([1]; T80, sample age 1:20): 13.1%
- Epimer % ([1]; T90, sample age 1:31): 14.1%
- Epimer % ([1]; T100, sample age 1:40): 15.2%
- Epimer % ([1]; T110, sample age 1:50): 16.1%
- Epimer % ([1]; T120, sample age 2:01): 17.0%
- component content of solution ([2]; pH 7.4 phosphate buffer control, same temperature as 25° C. binding buffer): 35%
- component content of solution ([2]; phosphate buffer control for the 37° C. VMAT2 uptake buffer): 36%
- half-life [3]: 3.47 h
- time at which geometric mean plasma concentration peaked [3]: 1.38 h
- AUC(0-inf) ([4]; female, iv, 2 mg/kg): 76.9 ng·h/mL
- AUC(0-t) ([4]; female, iv, 2 mg/kg): 75.4 ng·h/mL
- Cmax ([4]; female, iv, 2 mg/kg): 53.9 ng/mL
- MRT last ([4]; female, iv, 2 mg/kg): 1.6 h
- Tmax ([4]; female, iv, 2 mg/kg): 0.25 h
- Vd ([4]; female, iv, 2 mg/kg): 45.9 L/kg
- clearance ([4]; female, iv, 2 mg/kg): 0.433 mL/min/kg
- half-life ([4]; female, iv, 2 mg/kg): 1.47 h
- AUC(0-inf) ([4]; female, po, 20 mg/kg): 40.9 ng·h/mL
- AUC(0-t) ([4]; female, po, 20 mg/kg): 39.3 ng·h/mL
- Cmax ([4]; female, po, 20 mg/kg): 23.8 ng/mL
- MRT last ([4]; female, po, 20 mg/kg): 2.16 h
- Tmax ([4]; female, po, 20 mg/kg): 0.5 h
- half-life ([4]; female, po, 20 mg/kg): 1.71 h
- AUC(0-inf) ([4]; female, sc, 3 mg/kg): 128 ng·h/mL
- AUC(0-t) ([4]; female, sc, 3 mg/kg): 127 ng·h/mL
- Cmax ([4]; female, sc, 3 mg/kg): 85 ng/mL
- MRT last ([4]; female, sc, 3 mg/kg): 1.5 h
- Tmax ([4]; female, sc, 3 mg/kg): 0.5 h
- half-life ([4]; female, sc, 3 mg/kg): 1.11 h
- AUC(0-inf) ([4]; male, iv, 2 mg/kg): 69.7 ng·h/mL
- AUC(0-t) ([4]; male, iv, 2 mg/kg): 68.7 ng·h/mL
- Cmax ([4]; male, iv, 2 mg/kg): 47.6 ng/mL
- MRT last ([4]; male, iv, 2 mg/kg): 1.51 h
- Tmax ([4]; male, iv, 2 mg/kg): 0.25 h
- Vd ([4]; male, iv, 2 mg/kg): 46.3 L/kg
- clearance ([4]; male, iv, 2 mg/kg): 0.48 mL/min/kg
- half-life ([4]; male, iv, 2 mg/kg): 1.26 h
- AUC(0-inf) ([4]; male, po, 20 mg/kg): 54.8 ng·h/mL
- AUC(0-t) ([4]; male, po, 20 mg/kg): 54 ng·h/mL
- Cmax ([4]; male, po, 20 mg/kg): 49.8 ng/mL
- MRT last ([4]; male, po, 20 mg/kg): 1.73 h
- Tmax ([4]; male, po, 20 mg/kg): 0.5 h
- half-life ([4]; male, po, 20 mg/kg): 1.32 h
- AUC(0-inf) ([4]; male, sc, 3 mg/kg): 109 ng·h/mL
- AUC(0-t) ([4]; male, sc, 3 mg/kg): 108 ng·h/mL
- Cmax ([4]; male, sc, 3 mg/kg): 54.4 ng/mL
- MRT last ([4]; male, sc, 3 mg/kg): 1.45 h
- Tmax ([4]; male, sc, 3 mg/kg): 0.5 h
- half-life ([4]; male, sc, 3 mg/kg): 1.11 h
- time after lobeline administration within which significant epimer concentrations were achieved in plasma ([4]; rats, irrespective of dose or route): 15 to 30 min
- component content of solution [5]: 33%
